Legend:
Plasmodium falciparum [1] = experiment: Antimalarial activity against chloroquine-resistant Plasmodium falciparum Dd2; format: functional, organism-based
Plasmodium falciparum [2] = experiment: Antimalarial activity against chloroquine-sensitive Plasmodium falciparum D6; format: functional, organism-based
Plasmodium chabaudi = experiment: Antimalarial activity in Plasmodium chabaudi infected CF1 mice (Mus musculus) at 64 mg/kg over 4 days

## CN(CCCNc1ccnc2cc(Cl)ccc12)CCCN1c2ccccc2CCc2ccccc21
Plasmodium falciparum [1]
  IC50: 5.3 nM
Plasmodium falciparum [2]
  IC50: 2.9 nM
Plasmodium chabaudi
  Activity: >99%
